According to PubChem BioAssay (NCI):
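Exposure lasted 48 hours, with cells grown in 96-well plates and compounds tested at five concentrations. TGI denotes the concentration required for complete inhibition of growth.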

Columns and labels:
Assay in all cases: NCI anticancer screen, dose series, 48 h
A549 NSCLC = test system: A549 NSCLC
K-562 leukemia = test system: K-562 leukemia
SW-620 colon = test system: SW-620 colon
ACHN renal = test system: ACHN renal
SK-MEL-28 melanoma = test system: SK-MEL-28 melanoma
LOX IMVI melanoma = test system: LOX IMVI melanoma
OVCAR-5 ovarian = test system: OVCAR-5 ovarian
HL-60(TB) leukemia = test system: HL-60(TB) leukemia
NCI-H522 lung = test system: NCI-H522 lung
RPMI-8226 leukemia = test system: RPMI-8226 leukemia

| SMILES | TGI (A549 NSCLC) [µM] | TGI (K-562 leukemia) [µM] | TGI (SW-620 colon) [µM] | TGI (ACHN renal) [µM] | TGI (SK-MEL-28 melanoma) [µM] | TGI (LOX IMVI melanoma) [µM] | TGI (OVCAR-5 ovarian) [µM] | TGI (HL-60(TB) leukemia) [µM] | TGI (NCI-H522 lung) [µM] | TGI (RPMI-8226 leukemia) [µM] |
| --- | --- | --- | --- | --- | --- | --- | --- | --- | --- | --- |
| c1ccc2c(-c3csc(-c4c[nH]c5ccccc45)n3)c[nH]c2c1 | > 100 | 15.1 | > 100 | > 100 | > 100 | > 100 | > 100 | 47.6 |  |  |
| BrCc1ccc(CBr)c2c1-c1c(CBr)ccc3ccc(CBr)c-2c13 | > 100 | > 100 | > 100 | > 100 | > 100 | > 100 | > 100 | > 100 | > 100 | > 100 |
| CN(C)CC(/C(Cc1ccccc1)=N\NC(=S)NN)c1ccccc1 (stereo not drawn) | > 100 | > 100 | > 100 | > 100 | > 100 | > 100 | > 100 | > 100 | > 100 | > 100 |
| CCOP(=O)(OCC)C(Cc1ccc(Cl)cc1)NS(=O)(=O)c1ccc(C)cc1 (stereo not drawn) | > 100 | > 100 | > 100 | > 100 | > 100 | > 100 | > 100 | > 100 | > 100 | > 100 |
| O=C(Nc1nc2ncn(CCO)c2c(=O)[nH]1)c1ccccc1 | > 100 | > 100 | > 100 | > 100 | > 100 | > 100 | > 100 | > 100 | > 100 | > 100 |
| CC1CC(N2CCOCC2)=Nc2ccccc2N1Cc1ccccc1 (stereo not drawn) | > 100 | > 100 | > 100 | > 100 | > 100 | > 100 | > 100 | > 100 | > 100 | > 100 |
| Cc1ccc(S(=O)(=O)NC(=O)Nc2cc(Cl)c(S(N)(=O)=O)cc2S(N)(=O)=O)cc1 | > 100 | > 100 | > 100 |  | > 100 | > 100 | > 100 | > 100 | > 100 | > 100 |
| C/C(=N\NC(=S)Nc1ccc([N+](=O)[O-])cc1)c1nc2ncccc2[nH]1 | 19.1 | > 100 | > 100 |  | 3.2 |  | 4.14 | > 100 | 3.25 | 9.3 |
| CCC(=O)C(CCN1CCC(N2C(=O)C(CCC#N)c3ccccc32)CC1)(c1ccccc1)c1ccccc1 (stereo not drawn) | 31.7 | 23.1 | 24 | 43.8 | 34.9 | 27 | 67.7 | 22.2 | 25.8 | 21.8 |
| Cc1cccc(CNc2ncnc3[nH]ncc23)c1 | > 100 | > 100 | > 100 | > 100 | > 100 | > 100 | > 100 | > 100 | > 100 | > 100 |
| CCCCN(C)C(=O)C1=C(C)NC(C)=C(C(=O)N(C)CCCC)C1 | > 100 | > 100 | > 100 | > 100 | > 100 | > 100 | > 100 | > 100 | > 100 | > 100 |
| C=CCNC(=O)CN(CC(=O)O)C1CCCCC1N(CC(=O)O)CC(=O)O (stereo not drawn) | > 100 | > 100 | > 100 | > 100 | > 100 | > 100 | > 100 | > 100 | > 100 | > 100 |
| C[C@H]1C[C@H]2[C@@H]3CCC4=CC(=O)C=C[C@]4(C)C3=CC[C@]2(C)[C@@]1(O)C(=O)CO | > 100 | > 100 |  | > 100 | > 100 | > 100 | > 100 | > 100 | > 100 | > 100 |
| C=C1C2CCC3(CCC4C5(C)CCCC4(C=[N+](CCO)C5)C3C2)C1O (stereo not drawn) | > 100 |  | > 100 | > 100 | > 100 | > 100 | > 100 | > 100 | > 100 | > 100 |
| O=c1cc(CNC2CC3CCC2C3)[nH]c(=O)[nH]1 (stereo not drawn) | > 100 | > 100 | > 100 | > 100 | > 100 | > 100 | > 100 | > 100 | > 100 | > 100 |
| O=c1n(-c2ccccc2)c(=O)n2c(-c3ccccc3)c(-c3ccccc3)n12 | > 100 | > 100 | > 100 | > 100 | > 100 | > 100 | > 100 | > 100 |  |  |
| CC(=O)Nc1ccc(S(=O)(=O)NN(C)S(=O)(=O)c2ccc(C)cc2)cc1 | > 100 | > 100 | > 100 | > 100 | > 100 |  | > 100 | > 100 | > 100 | > 100 |
| COc1cc(-c2cc(=O)c3ccccc3[nH]2)cc(OC)c1OC | > 75 | > 75 | > 75 | > 75 | > 75 | > 75 |  | > 7.5 | > 75 | > 75 |
| C=C(C)CCC1CC=[N+]([O-])OC1C(C)(C)C (stereo not drawn) | 51.4 | > 100 | > 100 | > 100 |  | 40.3 | > 100 | 27.2 | 58.5 | > 100 |
| O/N=C1/CCCc2nonc21 | > 100 | > 100 | > 100 | > 100 | > 100 | > 100 | > 100 | > 100 |  | > 100 |
| CC(=O)O[C@@H]1[C@H]2[C@@H](OC(=O)c3ccccc3)[C@@H](C)C[C@]2(O)[C@H](OC(C)=O)[C@@]2(C)[C@@H]3C[C@@](C)(OC(C)=O)C[C@@H](OC(C)=O)[C@@]3(OC(C)=O)C[C@@]12C |  | > 10 | > 10 | > 10 |  | > 10 | > 10 | > 10 | > 10 |  |
| Cc1ccc(S(=O)(=O)N2CC(CCN)c3ccccc32)cc1 (stereo not drawn) | 32.5 | > 60.8 | 18 | > 53.2 | 34.7 | 13.5 | 24 | > 100 | 14.6 | > 63.6 |
| COc1cc(C(=O)O)c(-c2cc3c(cc2C=O)OCO3)c(OC)c1OC | > 10 | > 10 | > 10 | > 10 | > 10 | > 10 |  | > 10 | > 10 | > 10 |
